Laboratory results from ChEMBL document CHEMBL1136533, “Hemisynthesis and preliminary evaluation of novel endocannabinoid analogues” (Bioorg Med Chem Lett, 2003).

Assays:
[1] = target: Cannabinoid receptor 1 (Rattus norvegicus, UniProt P20272); test: Binding affinity towards Cannabinoid receptor 1 in rat forebrain membranes using [3H]CP-55940 as radioligand; format: cell membranes, Membrane
[2] = target: Cannabinoid receptor 1 (Rattus norvegicus) (UniProt P20272); test: Percentage affinity towards Cannabinoid receptor 1 using [3H]CP-55940 as radioligand in rat forebrain membranes; format: cell membranes; conditions: Membrane
Chain of Cannabinoid receptor 1 (Rattus norvegicus) (P20272 whole entry): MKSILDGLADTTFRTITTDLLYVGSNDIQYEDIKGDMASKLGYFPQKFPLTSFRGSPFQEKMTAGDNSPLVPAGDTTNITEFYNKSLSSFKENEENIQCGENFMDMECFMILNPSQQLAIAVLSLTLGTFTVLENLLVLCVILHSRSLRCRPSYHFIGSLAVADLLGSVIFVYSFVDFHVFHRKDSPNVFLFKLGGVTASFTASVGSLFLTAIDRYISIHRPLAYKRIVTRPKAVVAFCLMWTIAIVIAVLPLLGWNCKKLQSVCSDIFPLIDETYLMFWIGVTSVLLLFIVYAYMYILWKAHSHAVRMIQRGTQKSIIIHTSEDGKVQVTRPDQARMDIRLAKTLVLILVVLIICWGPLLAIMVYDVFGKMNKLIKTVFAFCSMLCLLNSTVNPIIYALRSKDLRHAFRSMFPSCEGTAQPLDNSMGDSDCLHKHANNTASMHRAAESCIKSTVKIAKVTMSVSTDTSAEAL

[3] = target: T1, Fatty-acid amide hydrolase 1 (Rattus norvegicus, UniProt P97612); test: Binding affinity towards Fatty-acid amide hydrolase (FAAH) in rat forebrain membranes; format: cell membranes, Membrane
T1 sequence (P97612 whole entry): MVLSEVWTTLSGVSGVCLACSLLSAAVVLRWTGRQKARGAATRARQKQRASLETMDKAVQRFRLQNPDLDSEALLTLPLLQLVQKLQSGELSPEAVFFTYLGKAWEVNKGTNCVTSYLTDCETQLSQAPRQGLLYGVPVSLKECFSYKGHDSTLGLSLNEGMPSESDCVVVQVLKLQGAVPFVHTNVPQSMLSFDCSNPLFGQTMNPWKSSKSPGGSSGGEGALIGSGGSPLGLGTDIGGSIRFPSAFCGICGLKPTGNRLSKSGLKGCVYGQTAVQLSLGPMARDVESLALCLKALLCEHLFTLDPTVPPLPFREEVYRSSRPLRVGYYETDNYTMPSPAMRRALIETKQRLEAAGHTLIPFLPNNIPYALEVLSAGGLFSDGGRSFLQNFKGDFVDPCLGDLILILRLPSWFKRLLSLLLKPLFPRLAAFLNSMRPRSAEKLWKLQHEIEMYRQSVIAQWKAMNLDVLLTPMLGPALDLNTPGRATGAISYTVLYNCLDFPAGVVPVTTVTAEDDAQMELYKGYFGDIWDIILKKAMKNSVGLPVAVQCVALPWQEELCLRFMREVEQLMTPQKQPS

[4] = target: T2, Fatty-acid amide hydrolase 1 (Rattus norvegicus) (UniProt P97612); test: Inhibitory effect on the Fatty-acid amide hydrolase (FAAH) activity was determined by % inhibition of anandamide hydrolysis at 1 uM concentration of compound; format: functional
T2 sequence (whole entry): T1 sequence (P97612 whole entry)

[5] = target: T2, Fatty-acid amide hydrolase 1 (Rattus norvegicus); test: Inhibitory effect on the Fatty-acid amide hydrolase (FAAH) activity was determined by % inhibition of anandamide hydrolysis at 10 uM concentration of compound; format: functional

Chain of Cannabinoid receptor 1 (P20272 whole entry): as the sequence (P20272 whole entry) above

| SMILES | Ki [1] [nM] | Affinity [2] [%] | Ki [3] [nM] | Inhibition of anandamide hydrolysis [4] [%] | Inhibition of anandamide hydrolysis [5] [%] |
| --- | --- | --- | --- | --- | --- |
| CCCCC/C=C\C/C=C\C/C=C\C/C=C\CCC(C)(C)C(=O)OCCO | > 10000 | 100 | 2100 | 90 | 12 |
| CCCCC/C=C\C/C=C\CCCCCCCC(=O)CCCO | – | 72 | – | 100 | 100 |
| CCCCC/C=C\C/C=C\C/C=C\C/C=C\CCCC(=O)OCCO | > 10000 | 83 | – | 100 | 70 |
| CCCCC/C=C\C/C=C\C/C=C\C/C=C\CCCC(=O)CCCO | 360 | 38 | – | 91 | 78 |
| CCCCC/C=C\C/C=C\C/C=C\C/C=C\CCCC(=O)NCCO [ANANDAMIDE] | – | 19 | 3000 | – | – |
